Measurements: PubChem BioAssay (NCI)
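Step 1: Grow cells in 96-well plates. Step 2: Expose to compound for 48 hours at 5 concentrations. Step 3: Interpolate endpoints linearly; if unreached, use highest concentration. Definition used: TGI = concentration required for complete inhibition of growth.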

Key:
Experiment in all cases: growth of human tumour cells (NCI), 48 h
EKVX NSCLC = tested on: EKVX NSCLC
UACC-62 melanoma = tested on: UACC-62 melanoma
OVCAR-8 ovarian = tested on: OVCAR-8 ovarian
M14 melanoma = tested on: M14 melanoma
SNB-78 CNS = tested on: SNB-78 CNS
HT29 colon = tested on: HT29 colon
HOP-62 NSCLC = tested on: HOP-62 NSCLC
SNB-75 CNS = tested on: SNB-75 CNS
DMS 273 small cell lung = tested on: DMS 273 small cell lung
A549 NSCLC = tested on: A549 NSCLC
OVCAR-5 ovarian = tested on: OVCAR-5 ovarian
COLO 205 colon = tested on: COLO 205 colon
U251 CNS = tested on: U251 CNS
SK-MEL-28 melanoma = tested on: SK-MEL-28 melanoma
SK-OV-3 ovarian = tested on: SK-OV-3 ovarian
ACHN renal = tested on: ACHN renal
K-562 leukemia = tested on: K-562 leukemia
HOP-92 NSCLC = tested on: HOP-92 NSCLC
SF-268 CNS = tested on: SF-268 CNS
NCI-H522 lung = tested on: NCI-H522 lung
HL-60(TB) leukemia = tested on: HL-60(TB) leukemia
RPMI-8226 leukemia = tested on: RPMI-8226 leukemia
NCI-H23 lung = tested on: NCI-H23 lung
786-0 renal = tested on: 786-0 renal
A498 renal = tested on: A498 renal
LXFL 529 NSCLC = tested on: LXFL 529 NSCLC
HCT-116 colon = tested on: HCT-116 colon
SK-MEL-2 melanoma = tested on: SK-MEL-2 melanoma
RXF 393 renal = tested on: RXF 393 renal
HCT-15 colon = tested on: HCT-15 colon
SF-295 CNS = tested on: SF-295 CNS
MOLT-4 leukemia = tested on: MOLT-4 leukemia
XF 498 CNS = tested on: XF 498 CNS
IGROV1 ovarian = tested on: IGROV1 ovarian
KM20L2 colon = tested on: KM20L2 colon
SNB-19 CNS = tested on: SNB-19 CNS
OVCAR-3 ovarian = tested on: OVCAR-3 ovarian
CCRF-CEM leukemia = tested on: CCRF-CEM leukemia
CAKI-1 renal = tested on: CAKI-1 renal
LOX IMVI melanoma = tested on: LOX IMVI melanoma
NCI-H226 lung = tested on: NCI-H226 lung
KM12 colon = tested on: KM12 colon
UO-31 renal = tested on: UO-31 renal
SF-539 CNS = tested on: SF-539 CNS
NCI-H460 lung = tested on: NCI-H460 lung
UACC-257 melanoma = tested on: UACC-257 melanoma
TK-10 renal = tested on: TK-10 renal
SR leukemia = tested on: SR leukemia
SW-620 colon = tested on: SW-620 colon
SN12C renal = tested on: SN12C renal
SK-MEL-5 melanoma = tested on: SK-MEL-5 melanoma
HCC-2998 colon = tested on: HCC-2998 colon
DMS 114 small cell lung = tested on: DMS 114 small cell lung
MALME-3M melanoma = tested on: MALME-3M melanoma
OVCAR-4 ovarian = tested on: OVCAR-4 ovarian
M19-MEL melanoma = tested on: M19-MEL melanoma

In the case of CN(C)C(=S)/N=c1\ss/c(=N\C(=S)N(C)C)n1-c1ccc(Cl)cc1, the TGI (EKVX NSCLC) is reported as greater than 100 µM, the TGI (UACC-62 melanoma) is reported as greater than 100 µM and the TGI (OVCAR-8 ovarian) is reported as greater than 100 µM. It also gave a TGI (M14 melanoma) greater than 100 µM, a TGI (SNB-78 CNS) greater than 100 µM and a TGI (HT29 colon) greater than 100 µM. For the same compound, the TGI (HOP-62 NSCLC) was greater than 100 µM, the TGI (SNB-75 CNS) was greater than 100 µM and the TGI (DMS 273 small cell lung) was greater than 100 µM. For the same compound, the TGI (A549 NSCLC) was greater than 100 µM, the TGI (OVCAR-5 ovarian) was greater than 100 µM and the TGI (COLO 205 colon) was greater than 100 µM. It also gave a TGI (U251 CNS) greater than 100 µM, a TGI (SK-MEL-28 melanoma) greater than 100 µM and a TGI (SK-OV-3 ovarian) greater than 100 µM. It also gave a TGI (ACHN renal) greater than 100 µM, a TGI (K-562 leukemia) greater than 100 µM and a TGI (HOP-92 NSCLC) greater than 100 µM. For the same compound, the TGI (SF-268 CNS) was greater than 100 µM, the TGI (NCI-H522 lung) was greater than 100 µM and the TGI (HL-60(TB) leukemia) was greater than 100 µM. The TGI (RPMI-8226 leukemia) was greater than 100 µM, the TGI (NCI-H23 lung) was greater than 100 µM and the TGI (786-0 renal) was greater than 100 µM. For the same compound, the TGI (A498 renal) was greater than 100 µM, the TGI (LXFL 529 NSCLC) was greater than 100 µM and the TGI (HCT-116 colon) was greater than 100 µM. It also gave a TGI (SK-MEL-2 melanoma) greater than 100 µM, a TGI (RXF 393 renal) greater than 100 µM and a TGI (HCT-15 colon) greater than 100 µM. It also gave a TGI (SF-295 CNS) greater than 100 µM, a TGI (MOLT-4 leukemia) greater than 100 µM and a TGI (XF 498 CNS) greater than 100 µM. For the same compound, the TGI (IGROV1 ovarian) was greater than 100 µM, the TGI (KM20L2 colon) was greater than 100 µM and the TGI (SNB-19 CNS) was greater than 100 µM. It also gave a TGI (OVCAR-3 ovarian) greater than 100 µM, a TGI (CCRF-CEM leukemia) greater than 100 µM and a TGI (CAKI-1 renal) greater than 100 µM. For the same compound, the TGI (LOX IMVI melanoma) was greater than 100 µM, the TGI (NCI-H226 lung) was greater than 100 µM and the TGI (KM12 colon) was greater than 100 µM. The TGI (UO-31 renal) was greater than 100 µM, the TGI (SF-539 CNS) was greater than 100 µM and the TGI (NCI-H460 lung) was greater than 100 µM. It also gave a TGI (UACC-257 melanoma) greater than 100 µM, a TGI (TK-10 renal) greater than 100 µM and a TGI (SR leukemia) greater than 100 µM. For the same compound, the TGI (SW-620 colon) was greater than 100 µM and the TGI (SN12C renal) was greater than 100 µM.

Work on CCCCCCCC(=O)OCC1OC(n2cc(F)c(=O)[nH]c2=O)C(NC(=O)OCc2ccccc2)C(O)C1O (stereo not drawn) yielded a TGI (SK-MEL-5 melanoma) of 23.7 µM, a TGI (EKVX NSCLC) greater than 100 µM and a TGI (UACC-62 melanoma) greater than 100 µM. It also gave a TGI (OVCAR-8 ovarian) greater than 100 µM, a TGI (M14 melanoma) greater than 100 µM and a TGI (SNB-78 CNS) greater than 100 µM. It also gave a TGI (HT29 colon) greater than 100 µM, a TGI (HOP-62 NSCLC) greater than 100 µM and a TGI (SNB-75 CNS) greater than 100 µM. It also gave a TGI (DMS 273 small cell lung) greater than 100 µM, a TGI (HCC-2998 colon) of 52.2 µM and a TGI (DMS 114 small cell lung) greater than 100 µM. It also gave a TGI (A549 NSCLC) greater than 100 µM, a TGI (COLO 205 colon) greater than 100 µM and a TGI (U251 CNS) greater than 100 µM. The TGI (SK-MEL-28 melanoma) was greater than 100 µM, the TGI (SK-OV-3 ovarian) was greater than 100 µM and the TGI (ACHN renal) was greater than 100 µM. For the same compound, the TGI (K-562 leukemia) was greater than 100 µM, the TGI (HOP-92 NSCLC) was 65.2 µM and the TGI (SF-268 CNS) was greater than 100 µM. The TGI (NCI-H522 lung) was 92 µM, the TGI (MALME-3M melanoma) was greater than 100 µM and the TGI (HL-60(TB) leukemia) was greater than 100 µM. The TGI (RPMI-8226 leukemia) was 91.7 µM, the TGI (NCI-H23 lung) was greater than 100 µM and the TGI (786-0 renal) was greater than 100 µM. The TGI (OVCAR-4 ovarian) was greater than 100 µM, the TGI (A498 renal) was greater than 100 µM and the TGI (LXFL 529 NSCLC) was greater than 100 µM. The TGI (HCT-116 colon) was greater than 100 µM, the TGI (SK-MEL-2 melanoma) was 53.5 µM and the TGI (RXF 393 renal) was greater than 100 µM. For the same compound, the TGI (HCT-15 colon) was greater than 100 µM, the TGI (SF-295 CNS) was greater than 100 µM and the TGI (MOLT-4 leukemia) was greater than 100 µM. The TGI (M19-MEL melanoma) was greater than 100 µM, the TGI (IGROV1 ovarian) was greater than 100 µM and the TGI (KM20L2 colon) was greater than 100 µM. The TGI (SNB-19 CNS) was greater than 100 µM, the TGI (OVCAR-3 ovarian) was greater than 100 µM and the TGI (CCRF-CEM leukemia) was greater than 100 µM. For the same compound, the TGI (CAKI-1 renal) was greater than 100 µM, the TGI (LOX IMVI melanoma) was greater than 100 µM and the TGI (KM12 colon) was greater than 100 µM. For the same compound, the TGI (UO-31 renal) was greater than 100 µM, the TGI (SF-539 CNS) was greater than 100 µM and the TGI (NCI-H460 lung) was greater than 100 µM. It also gave a TGI (UACC-257 melanoma) greater than 100 µM, a TGI (TK-10 renal) greater than 100 µM and a TGI (SR leukemia) greater than 100 µM. The TGI (SW-620 colon) was greater than 100 µM and the TGI (SN12C renal) was greater than 100 µM.
